PMC4691232 (Chemistry & Biology, 2015)
Entries after “also recorded” stand apart in the source; their conditions may differ.

How the values were obtained:
WcbL [1] = biological target: T1, WcbL (Burkholderia pseudomallei, UniProt H7C745); assay: biochemical
WcbL [2] = biological target: T1, WcbL; assay: biochemical; format: binding

T1 sequence (H7C745 1-346): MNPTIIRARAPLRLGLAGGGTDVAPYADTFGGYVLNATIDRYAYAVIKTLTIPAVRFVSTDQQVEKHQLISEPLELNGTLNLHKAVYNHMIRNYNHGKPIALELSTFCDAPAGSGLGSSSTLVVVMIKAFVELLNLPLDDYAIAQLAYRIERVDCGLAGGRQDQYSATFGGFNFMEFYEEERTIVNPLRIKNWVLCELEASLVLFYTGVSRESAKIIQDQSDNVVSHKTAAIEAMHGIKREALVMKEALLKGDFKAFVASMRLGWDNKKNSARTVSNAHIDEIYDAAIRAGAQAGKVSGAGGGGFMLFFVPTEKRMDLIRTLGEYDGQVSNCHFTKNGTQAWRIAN

Structure (SMILES) | Ki (WcbL [1]) | activity against WcbL (structure-activity relationship study, in words) (WcbL [1]) | Kd (WcbL [2]) | cooperativity coefficient n (DSF binding) (WcbL [2])
N#Cc1coc2ccccc2c1=O [3-cyanochromone] | 10 ± 6 µM | – | – | –
N#Cc1coc2c(Cl)cc(Cl)cc2c1=O [6,8-dichloro-3-cyanochromone] | – | significantly weaker activity; also recorded: far less potent inhibitor | – | –
N#Cc1coc2ccc(Br)cc2c1=O [6-bromo-3-cyanochromone] | 12 ± 5 µM | very similar to those of the original compound | – | –
O=P(O)(O)OCC(O)C1OC(O)C(O)C(O)C1O [M7P, D-manno-α,β-D-heptose-7-phosphate] | – | – | 968 ± 37 µM | did not show any cooperativity
O=Cc1coc2ccccc2c1=O [chromone-3-carboxaldehyde] | – | significantly weaker activity; also recorded: much weaker IC50 | – | –
O=c1ccoc2ccccc12 [chromone] | – | significantly weaker activity; also recorded: does not inhibit WcbL | – | –
Nc1ncnc2c1ncn2[C@@H]1OC(COP(=O)(O)OP(=O)(O)OP(=O)(O)O)[C@@H](O)[C@H]1O (stereo partly shown) [ATP] | – | – | 33 ± 7 µM | 0.6 ± 0.06
